Assay results taken from ChEMBL document CHEMBL3763148, “Synthesis, structure elucidation, DNA-PK and PI3K and anti-cancer activity of 8- and 6-aryl-substituted-1-3-benzoxazines” (Eur J Med Chem, 2016).

Tests used:
[1] = target: T1, Phosphatidylinositol 4,5-bisphosphate 3-kinase catalytic subunit alpha isoform (Homo sapiens, UniProt P42336); assay: Inhibition of PI3Kalpha (unknown origin) at 10 uM incubated for 60 mins by kinase-glo luminescence assay
[2] = target: Phosphatidylinositol 4,5-bisphosphate 3-kinase catalytic subunit gamma isoform (Homo sapiens) (UniProt P48736); assay: Inhibition of PI3Kgamma (unknown origin) at 10 uM incubated for 60 mins by kinase-glo luminescence assay
[3] = target: T2, Phosphatidylinositol 4,5-bisphosphate 3-kinase catalytic subunit beta isoform (Homo sapiens, UniProt P42338); assay: Inhibition of PI3Kbeta (unknown origin) at 10 uM incubated for 60 mins by kinase-glo luminescence assay
Target sequence in this assay (P42338 whole entry, looked up, canonical isoform): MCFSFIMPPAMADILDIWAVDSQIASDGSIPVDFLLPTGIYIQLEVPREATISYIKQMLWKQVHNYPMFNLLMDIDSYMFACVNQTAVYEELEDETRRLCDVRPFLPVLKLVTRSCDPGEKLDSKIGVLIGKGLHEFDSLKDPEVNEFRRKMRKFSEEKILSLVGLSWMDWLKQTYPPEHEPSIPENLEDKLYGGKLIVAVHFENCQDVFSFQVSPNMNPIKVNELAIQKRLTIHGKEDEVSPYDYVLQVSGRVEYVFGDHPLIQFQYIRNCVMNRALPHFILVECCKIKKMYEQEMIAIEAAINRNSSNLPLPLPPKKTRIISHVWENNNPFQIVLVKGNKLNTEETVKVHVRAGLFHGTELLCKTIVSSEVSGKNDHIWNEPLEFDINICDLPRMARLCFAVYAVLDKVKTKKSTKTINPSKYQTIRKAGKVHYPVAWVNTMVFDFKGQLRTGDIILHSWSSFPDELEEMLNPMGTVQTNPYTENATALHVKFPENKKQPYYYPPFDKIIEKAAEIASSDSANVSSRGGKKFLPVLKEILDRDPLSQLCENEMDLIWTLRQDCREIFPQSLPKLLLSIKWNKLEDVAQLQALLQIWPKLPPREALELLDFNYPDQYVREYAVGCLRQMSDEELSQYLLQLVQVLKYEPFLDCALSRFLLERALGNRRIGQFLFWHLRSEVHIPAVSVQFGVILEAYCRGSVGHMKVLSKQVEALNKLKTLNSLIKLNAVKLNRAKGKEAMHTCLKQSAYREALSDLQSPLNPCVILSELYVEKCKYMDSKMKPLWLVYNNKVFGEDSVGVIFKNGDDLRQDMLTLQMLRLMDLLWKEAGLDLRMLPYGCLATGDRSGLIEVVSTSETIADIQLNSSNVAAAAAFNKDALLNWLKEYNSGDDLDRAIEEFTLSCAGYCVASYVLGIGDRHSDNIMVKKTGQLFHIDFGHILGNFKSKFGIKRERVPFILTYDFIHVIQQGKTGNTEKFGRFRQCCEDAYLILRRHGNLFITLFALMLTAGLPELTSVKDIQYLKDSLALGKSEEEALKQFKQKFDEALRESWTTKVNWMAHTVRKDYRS

[4] = target: T3, Phosphatidylinositol 4,5-bisphosphate 3-kinase catalytic subunit delta isoform (Homo sapiens) (UniProt O00329); assay: Inhibition of PI3Kdelta (unknown origin) at 10 uM incubated for 60 mins by kinase-glo luminescence assay
T3 sequence (whole entry): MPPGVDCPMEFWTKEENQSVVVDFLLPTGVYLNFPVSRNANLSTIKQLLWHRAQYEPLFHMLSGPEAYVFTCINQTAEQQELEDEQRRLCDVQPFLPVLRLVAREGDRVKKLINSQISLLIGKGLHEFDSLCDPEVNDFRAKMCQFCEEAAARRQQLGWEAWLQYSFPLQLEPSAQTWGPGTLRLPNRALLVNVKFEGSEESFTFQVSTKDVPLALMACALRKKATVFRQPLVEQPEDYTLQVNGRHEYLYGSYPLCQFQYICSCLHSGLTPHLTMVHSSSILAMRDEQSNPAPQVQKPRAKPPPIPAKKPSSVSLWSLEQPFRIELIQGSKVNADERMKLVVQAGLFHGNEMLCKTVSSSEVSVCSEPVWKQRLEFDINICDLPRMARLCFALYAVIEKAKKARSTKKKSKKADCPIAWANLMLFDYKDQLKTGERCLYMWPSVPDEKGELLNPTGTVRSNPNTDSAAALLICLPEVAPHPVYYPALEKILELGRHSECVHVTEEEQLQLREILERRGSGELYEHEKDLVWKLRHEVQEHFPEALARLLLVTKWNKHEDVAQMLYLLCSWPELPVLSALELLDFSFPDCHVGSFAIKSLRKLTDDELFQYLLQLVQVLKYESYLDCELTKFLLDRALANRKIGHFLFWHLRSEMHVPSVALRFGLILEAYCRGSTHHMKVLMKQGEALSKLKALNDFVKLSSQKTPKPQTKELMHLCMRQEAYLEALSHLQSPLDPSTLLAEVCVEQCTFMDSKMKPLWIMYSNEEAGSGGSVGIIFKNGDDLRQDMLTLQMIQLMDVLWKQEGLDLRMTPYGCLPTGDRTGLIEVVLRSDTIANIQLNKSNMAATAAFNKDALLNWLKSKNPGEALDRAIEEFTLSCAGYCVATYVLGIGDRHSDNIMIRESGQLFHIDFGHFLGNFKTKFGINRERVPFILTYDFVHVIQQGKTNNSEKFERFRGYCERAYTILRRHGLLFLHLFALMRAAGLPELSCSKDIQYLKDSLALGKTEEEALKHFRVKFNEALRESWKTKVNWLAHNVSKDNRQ

[5] = target: T4, DNA-dependent protein kinase catalytic subunit (Homo sapiens, UniProt P78527); assay: Inhibition of human DNA-PK using EPPLSQEAFADLWKK as substrate at 10 uM by HTRF assay
[6] = target: T2, Phosphatidylinositol 4,5-bisphosphate 3-kinase catalytic subunit beta isoform; assay: Inhibition of PI3Kbeta (unknown origin) incubated for 60 mins by kinase-glo luminescence assay
[7] = target: T4, DNA-dependent protein kinase catalytic subunit; assay: Inhibition of human DNA-PK using EPPLSQEAFADLWKK as substrate by HTRF assay
[8] = target: T5, Phosphatidylinositol 4,5-bisphosphate 3-kinase catalytic subunit delta isoform (Homo sapiens, UniProt O00329); assay: Inhibition of PI3Kdelta (unknown origin) incubated for 60 mins by kinase-glo luminescence assay
T5 sequence (O00329 whole entry): T3 sequence (whole entry)

[9] = target: T1, Phosphatidylinositol 4,5-bisphosphate 3-kinase catalytic subunit alpha isoform; assay: Inhibition of PI3Kalpha (unknown origin) incubated for 60 mins by kinase-glo luminescence assay

T4 sequence (P78527 whole entry, canonical isoform): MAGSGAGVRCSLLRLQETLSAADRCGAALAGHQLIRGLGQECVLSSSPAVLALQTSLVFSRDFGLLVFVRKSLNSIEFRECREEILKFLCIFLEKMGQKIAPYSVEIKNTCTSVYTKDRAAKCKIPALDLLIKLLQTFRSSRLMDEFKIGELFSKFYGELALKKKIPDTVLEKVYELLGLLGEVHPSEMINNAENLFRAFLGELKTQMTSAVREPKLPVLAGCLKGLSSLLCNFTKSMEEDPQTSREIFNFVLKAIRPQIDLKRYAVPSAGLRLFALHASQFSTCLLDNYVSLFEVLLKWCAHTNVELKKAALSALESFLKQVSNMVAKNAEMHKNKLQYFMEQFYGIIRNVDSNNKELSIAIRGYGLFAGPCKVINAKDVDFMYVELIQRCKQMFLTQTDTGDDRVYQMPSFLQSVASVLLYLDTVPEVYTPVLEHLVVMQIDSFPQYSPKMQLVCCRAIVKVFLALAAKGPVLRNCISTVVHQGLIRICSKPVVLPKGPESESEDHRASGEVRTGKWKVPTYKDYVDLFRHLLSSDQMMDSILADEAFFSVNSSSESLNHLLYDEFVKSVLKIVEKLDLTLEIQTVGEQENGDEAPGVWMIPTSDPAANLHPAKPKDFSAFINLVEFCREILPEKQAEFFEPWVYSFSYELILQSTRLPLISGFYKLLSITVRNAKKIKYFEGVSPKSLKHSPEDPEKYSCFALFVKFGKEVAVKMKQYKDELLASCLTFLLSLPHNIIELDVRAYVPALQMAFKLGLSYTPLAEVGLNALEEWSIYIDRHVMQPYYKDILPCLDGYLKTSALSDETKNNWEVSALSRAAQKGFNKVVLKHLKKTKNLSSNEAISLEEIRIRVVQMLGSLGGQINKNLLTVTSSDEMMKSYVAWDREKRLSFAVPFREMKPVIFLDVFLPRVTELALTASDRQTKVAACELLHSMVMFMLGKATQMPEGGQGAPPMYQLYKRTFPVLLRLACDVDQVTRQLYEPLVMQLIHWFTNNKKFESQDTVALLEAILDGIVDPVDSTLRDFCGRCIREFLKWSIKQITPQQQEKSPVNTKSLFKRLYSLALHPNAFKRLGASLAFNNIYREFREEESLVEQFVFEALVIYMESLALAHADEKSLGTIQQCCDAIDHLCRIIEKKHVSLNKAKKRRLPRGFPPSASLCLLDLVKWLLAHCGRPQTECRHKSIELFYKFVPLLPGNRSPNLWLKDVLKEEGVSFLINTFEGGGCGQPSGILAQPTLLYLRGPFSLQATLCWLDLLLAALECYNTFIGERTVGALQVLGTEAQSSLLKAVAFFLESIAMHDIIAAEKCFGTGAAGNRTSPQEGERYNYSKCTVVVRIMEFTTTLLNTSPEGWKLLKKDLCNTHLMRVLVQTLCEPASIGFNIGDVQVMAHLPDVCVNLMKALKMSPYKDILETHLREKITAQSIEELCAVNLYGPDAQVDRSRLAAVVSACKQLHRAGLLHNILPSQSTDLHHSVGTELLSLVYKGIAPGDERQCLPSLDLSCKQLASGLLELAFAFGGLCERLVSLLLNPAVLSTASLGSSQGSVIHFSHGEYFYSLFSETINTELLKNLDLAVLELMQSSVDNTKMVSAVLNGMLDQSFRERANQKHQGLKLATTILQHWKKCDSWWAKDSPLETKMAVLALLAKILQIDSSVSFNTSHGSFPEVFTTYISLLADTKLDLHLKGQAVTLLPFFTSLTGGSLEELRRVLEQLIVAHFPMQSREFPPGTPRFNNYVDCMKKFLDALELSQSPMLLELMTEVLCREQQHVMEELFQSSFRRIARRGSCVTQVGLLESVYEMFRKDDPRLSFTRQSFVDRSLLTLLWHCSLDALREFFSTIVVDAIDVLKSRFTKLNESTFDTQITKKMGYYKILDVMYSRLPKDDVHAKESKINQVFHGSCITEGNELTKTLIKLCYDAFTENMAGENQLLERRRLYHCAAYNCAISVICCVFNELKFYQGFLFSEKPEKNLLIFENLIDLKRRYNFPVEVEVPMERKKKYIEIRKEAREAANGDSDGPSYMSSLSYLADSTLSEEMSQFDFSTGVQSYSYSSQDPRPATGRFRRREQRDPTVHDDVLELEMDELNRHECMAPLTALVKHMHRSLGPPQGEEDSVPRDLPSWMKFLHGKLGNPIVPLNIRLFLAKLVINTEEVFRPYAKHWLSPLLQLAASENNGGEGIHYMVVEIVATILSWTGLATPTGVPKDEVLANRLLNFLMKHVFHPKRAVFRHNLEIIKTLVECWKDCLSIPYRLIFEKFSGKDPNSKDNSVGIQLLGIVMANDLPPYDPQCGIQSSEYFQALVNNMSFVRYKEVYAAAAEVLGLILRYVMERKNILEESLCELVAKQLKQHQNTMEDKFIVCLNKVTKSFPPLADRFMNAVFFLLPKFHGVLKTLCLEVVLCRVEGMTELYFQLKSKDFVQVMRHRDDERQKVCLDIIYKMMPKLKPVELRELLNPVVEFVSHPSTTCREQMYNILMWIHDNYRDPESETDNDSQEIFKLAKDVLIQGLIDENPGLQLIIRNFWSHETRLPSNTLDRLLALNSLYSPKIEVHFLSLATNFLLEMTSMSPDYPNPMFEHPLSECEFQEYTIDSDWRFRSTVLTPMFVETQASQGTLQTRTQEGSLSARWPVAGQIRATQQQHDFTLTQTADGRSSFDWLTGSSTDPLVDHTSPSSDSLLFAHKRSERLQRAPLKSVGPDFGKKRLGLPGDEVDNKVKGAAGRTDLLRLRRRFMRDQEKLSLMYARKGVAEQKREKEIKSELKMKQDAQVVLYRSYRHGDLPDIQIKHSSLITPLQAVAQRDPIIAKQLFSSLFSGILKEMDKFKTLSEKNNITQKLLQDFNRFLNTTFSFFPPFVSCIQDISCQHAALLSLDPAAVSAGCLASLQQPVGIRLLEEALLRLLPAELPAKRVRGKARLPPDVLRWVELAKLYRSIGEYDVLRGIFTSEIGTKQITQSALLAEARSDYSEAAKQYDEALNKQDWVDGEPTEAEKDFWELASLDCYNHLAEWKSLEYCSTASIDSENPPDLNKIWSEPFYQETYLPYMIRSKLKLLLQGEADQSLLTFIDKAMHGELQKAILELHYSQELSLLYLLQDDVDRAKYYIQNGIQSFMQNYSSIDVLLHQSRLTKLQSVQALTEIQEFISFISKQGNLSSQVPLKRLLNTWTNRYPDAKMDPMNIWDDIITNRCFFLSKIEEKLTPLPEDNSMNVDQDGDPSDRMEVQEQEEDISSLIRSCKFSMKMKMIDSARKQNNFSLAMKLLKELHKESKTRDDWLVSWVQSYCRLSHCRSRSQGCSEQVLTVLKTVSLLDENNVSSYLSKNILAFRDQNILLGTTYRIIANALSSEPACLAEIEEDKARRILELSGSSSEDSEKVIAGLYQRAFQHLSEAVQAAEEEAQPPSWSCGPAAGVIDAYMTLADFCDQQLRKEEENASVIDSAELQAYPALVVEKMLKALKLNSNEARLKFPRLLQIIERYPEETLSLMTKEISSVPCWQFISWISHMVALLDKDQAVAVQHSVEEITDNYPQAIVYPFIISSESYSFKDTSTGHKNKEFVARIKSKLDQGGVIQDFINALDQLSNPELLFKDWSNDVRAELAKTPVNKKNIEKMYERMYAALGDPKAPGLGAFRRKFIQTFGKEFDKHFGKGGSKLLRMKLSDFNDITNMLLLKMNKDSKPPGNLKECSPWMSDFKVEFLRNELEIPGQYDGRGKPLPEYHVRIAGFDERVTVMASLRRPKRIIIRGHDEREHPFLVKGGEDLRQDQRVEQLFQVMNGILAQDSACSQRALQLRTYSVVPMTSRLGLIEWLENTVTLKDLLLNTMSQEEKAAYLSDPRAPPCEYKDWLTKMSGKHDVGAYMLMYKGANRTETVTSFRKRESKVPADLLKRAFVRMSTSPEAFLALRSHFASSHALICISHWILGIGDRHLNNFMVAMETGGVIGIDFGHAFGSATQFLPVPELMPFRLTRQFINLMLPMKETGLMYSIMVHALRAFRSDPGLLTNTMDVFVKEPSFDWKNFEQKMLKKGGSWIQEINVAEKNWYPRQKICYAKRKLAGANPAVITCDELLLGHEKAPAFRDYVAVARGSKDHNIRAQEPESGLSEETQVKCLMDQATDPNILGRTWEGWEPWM

| SMILES | inhibition [1] | inhibition [2] | inhibition [3] | inhibition [4] | inhibition [5] | IC50 [6] | IC50 [7] | IC50 [8] | IC50 [9] |
| --- | --- | --- | --- | --- | --- | --- | --- | --- | --- |
| O=c1nc(N2CCOCC2)oc2ccc(-c3cccc4c3oc3ccccc34)cc12 | 5% | 0% | 6% | 0% | 12% | – | – | – | – |
| Nc1cccc(-c2cccc3c(=O)nc(N4CCOCC4)oc23)c1 | 13% | 0% | – | 4% | – | 10 µM | 63.5 µM | – | – |
| O=c1nc(N2CCOCC2)oc2ccc(-c3cccc4ccccc34)cc12 | 10% | 4% | 0% | 0% | 4% | – | – | – | – |
| Nc1cccc(-c2ccc3oc(N4CCOCC4)nc(=O)c3c2)c1 | – | – | – | – | 7% | – | – | – | – |
| NC(=O)c1ccc(-c2ccc3oc(N4CCOCC4)nc(=O)c3c2)cc1 | – | – | – | – | 8% | – | – | – | – |
| O=c1nc(N2CCOCC2)oc2ccc(-c3ccsc3)cc12 | – | – | – | – | 21% | – | – | – | – |
| O=c1nc(N2CCOCC2)oc2ccc(-c3cccs3)cc12 | – | – | – | – | 24% | – | – | – | – |
| O=c1nc(N2CCOCC2)oc2ccc(-c3cc4ccccc4s3)cc12 | 3% | 3% | 20% | 0% | 0% | – | – | – | – |
| O=c1nc(N2CCOCC2)oc2ccc(-c3ccc(Cl)cc3)cc12 | 10% | 10% | 0% | 0% | 7% | – | – | – | – |
| O=c1nc(N2CCOCC2)oc2c(-c3cccs3)cc(Cl)cc12 | 42% | 0% | 0% | – | – | – | 6.05 µM | 10 µM | – |
| O=c1nc(N2CCOCC2)oc2c(-c3cccc4c3sc3ccccc34)cc(Cl)cc12 | 0% | 1% | 59% | 36% | – | – | 0.564 µM | – | – |
| O=c1nc(N2CCOCC2)oc2c(-c3ccc(CO)cc3)cccc12 | – | 31% | – | – | – | 3.2 µM | 15.7 µM | 9 µM | 10 µM |
| COc1ccc(-c2ccc3oc(N4CCOCC4)nc(=O)c3c2)cc1 | 7% | 0% | 17% | 0% | 8% | – | – | – | – |
| COc1ccc(-c2cc(Cl)cc3c(=O)nc(N4CCOCC4)oc23)cc1 | 16% | 0% | 0% | – | – | – | 12.3 µM | 2.6 µM | – |
| O=c1nc(N2CCOCC2)oc2ccc(-c3cccc(-c4ccccc4)c3)cc12 | 11% | 0% | 13% | 0% | 7% | – | – | – | – |
| O=c1nc(N2CCOCC2)oc2c(-c3cccnc3)cccc12 | 26% | 24% | – | 37% | – | > 10 µM | 78.4 µM | – | – |
| O=c1nc(N2CCOCC2)oc2c(-c3ccc(Cl)cc3)cccc12 | – | 16% | 34% | – | – | – | 10.9 µM | 10 µM | > 10 µM |
| O=c1cc(N2CCOCC2)oc2c(-c3ccccc3)cccc12 [LY-294002] | – | – | – | – | – | – | 0.3 µM | 0.95 µM | – |
| O=c1nc(N2CCOCC2)oc2ccc(/C=C/c3ccccc3)cc12 | 3% | 4% | 29% | 0% | 23% | – | – | – | – |
| O=c1nc(N2CCOCC2)oc2c(-c3cc4ccccc4s3)cc(Cl)cc12 | 35% | 14% | 15% | 16% | – | – | 5.77 µM | – | – |
| O=c1nc(N2CCOCC2)oc2ccc(-c3cccnc3)cc12 | 11% | 0% | 36% | 3% | 6% | – | – | – | – |
| O=c1nc(N2CCOCC2)oc2ccc(-c3ccc(CO)cc3)cc12 | 7% | 0% | 0% | 0% | 11% | – | – | – | – |
| O=c1nc(N2CCOCC2)oc2c(-c3cc4ccccc4s3)cccc12 | – | 17% | 15% | – | – | – | 2.12 µM | 3.7 µM | 10 µM |
| O=c1nc(N2CCOCC2)oc2ccc(-c3ccccc3)cc12 | 2% | 9% | 0% | 0% | 1% | – | – | – | – |
